Source: patent US11173151B2, “Substituted triazole derivatives and uses thereof” (BAYER AKTIENGESELLSCHAFT, priority 2017, dated 2021)
Read-outs that look alike come from different tables or passages of the source.

Assays:
[1] = target: T1, human V2 receptor (Homo sapiens, UniProt P30518); assay: Cellular in vitro assay for determining vasopressin receptor activity, V2 receptor cell line (CHO, CRE-luciferase); format: cell-based; conditions: CHO cell line transfected with human V2 receptor, [Arg8]-vasopressin at EC50 concentration, read-out: IC50 hV2
T1 construct: expressed in transfected cells; host or cells: CHO K1 (ATCC) expressing firefly luciferase under a CRE-responsive promoter
T1 sequence (P30518 whole entry): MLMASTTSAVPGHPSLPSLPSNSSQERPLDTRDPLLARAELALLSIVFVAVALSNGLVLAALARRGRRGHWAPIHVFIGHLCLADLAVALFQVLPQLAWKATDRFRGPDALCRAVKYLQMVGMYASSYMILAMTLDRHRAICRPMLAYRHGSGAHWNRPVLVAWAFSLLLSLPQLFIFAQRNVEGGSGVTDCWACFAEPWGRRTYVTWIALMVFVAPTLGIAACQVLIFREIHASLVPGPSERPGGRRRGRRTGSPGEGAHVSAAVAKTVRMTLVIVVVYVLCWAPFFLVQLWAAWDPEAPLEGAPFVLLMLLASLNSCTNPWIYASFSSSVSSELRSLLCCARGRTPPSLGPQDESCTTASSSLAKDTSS

[2] = target: T2, human V1a receptor (Homo sapiens, UniProt P37288); assay: Cellular in vitro assay for determining vasopressin receptor activity, V1a receptor cell line (CHO, aequorin luminescence); format: cell-based; conditions: for IC50: CHO cell line transfected with human V1a receptor, [Arg]-vasopressin at EC50 concentration, read-out: IC50 hV1a; for ratio IC50 hV2/hV1a: selectivity ratio IC50 hV2 / IC50 hV1a
T2 construct: expressed in transfected cells; host or cells: CHO K1 (ATCC), also stably transfected with a modified aequorin
T2 sequence (P37288 whole entry): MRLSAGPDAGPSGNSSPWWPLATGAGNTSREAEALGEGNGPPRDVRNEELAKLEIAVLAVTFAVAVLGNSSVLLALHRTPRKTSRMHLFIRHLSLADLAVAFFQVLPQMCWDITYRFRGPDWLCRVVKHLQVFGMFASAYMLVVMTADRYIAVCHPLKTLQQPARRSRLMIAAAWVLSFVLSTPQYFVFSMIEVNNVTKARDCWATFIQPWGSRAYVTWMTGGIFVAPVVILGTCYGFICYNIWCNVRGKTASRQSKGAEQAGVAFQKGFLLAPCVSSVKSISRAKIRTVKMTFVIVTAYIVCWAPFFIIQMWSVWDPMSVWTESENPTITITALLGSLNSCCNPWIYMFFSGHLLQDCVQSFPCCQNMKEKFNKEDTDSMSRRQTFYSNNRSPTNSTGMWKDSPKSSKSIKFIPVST
How it was run: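 Cells were plated the day before in medium containing 5 μg/ml coelenterazine and kept at 37° C. Compounds at various concentrations were then added for 10 minutes. Next, [Arg]-vasopressin at EC50 was applied and light output recorded at once, yielding IC50.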

IC50 [1] [nM] | IC50 [2] [nM] | ratio IC50 hV2/hV1a [2] | IC50 ([1]; 3 hours) [nM] | SMILES
55000 | 5700 | 9.6 |  | COCC1CCCN1C(=O)c1ccncc1-n1nc(Cn2nc(-c3ccc(Cl)cc3)n(C[C@H](O)C(F)(F)F)c2=O)nc1C(=O)N1CCNC(=O)C1 (mixture of isomers) [Example 516, 4-{[3-({3-(4-Chlorophenyl)-5-oxo-4-[(2S)-3,3,3-trifluoro-2-hydroxypropyl]-4,5-dihydro-1H-1,2,4-triazol-1-yl}methyl)-1-(4-{[2-(methoxymethyl)pyrrolidin-1-yl]carbonyl}pyridin-3-yl)-1H-1,2,4-triazol-5-yl]carbonyl}piperazin-2-one]
15000 | 3000 | 5.0 |  | COCC1CCCN1C(=O)c1ccncc1-n1nc(Cn2nc(-c3ccc(Cl)cc3)n(C[C@H](O)C(F)(F)F)c2=O)nc1C(=O)N1CCS(=O)(=O)CC1 (mixture of isomers) [Example 522, 5-(4-Chlorophenyl)-2-({5-[(1,1-dioxidothiomorpholin-4-yl)carbonyl]-1-(4-{[2-(methoxymethyl)pyrrolidin-1-yl]carbonyl}pyridin-3-yl)-1H-1,2,4-triazol-3-yl}methyl)-4-[(2S)-3,3,3-trifluoro-2-hydroxypropyl]-2,4-dihydro-3H-1,2,4-triazol-3-one]
20000 | 8650 | 2.3 |  | COCC1CCCN1C(=O)c1cccnc1-n1nc(Cn2nc(-c3ccc(Cl)cc3)n(C[C@H](O)C(F)(F)F)c2=O)nc1C(=O)N1CCNC(=O)C1 (mixture of isomers) [Example 526, 4-{[3-({3-(4-Chlorophenyl)-5-oxo-4-[(2S)-3,3,3-trifluoro-2-hydroxypropyl]-4,5-dihydro-1H-1,2,4-triazol-1-yl}methyl)-1-(3-{[2-(methoxymethyl)pyrrolidin-1-yl]carbonyl}pyridin-2-yl)-1H-1,2,4-triazol-5-yl]carbonyl}piperazin-2-one]
4850 | 275 | 17.6 |  | COCC1CCCN1C(=O)c1cccnc1-n1nc(Cn2nc(-c3ccc(Cl)cc3)n(C[C@H](O)C(F)(F)F)c2=O)nc1C(=O)N1CCS(=O)(=O)CC1 (mixture of isomers) [Example 532, 5-(4-Chlorophenyl)-2-({5-[(1,1-dioxidothiomorpholin-4-yl)carbonyl]-1-(3-{[2-(methoxymethyl)pyrrolidin-1-yl]carbonyl}pyridin-2-yl)-1H-1,2,4-triazol-3-yl}methyl)-4-[(2S)-3,3,3-trifluoro-2-hydroxypropyl]-2,4-dihydro-3H-1,2,4-triazol-3-one]
83300 | 280 | 297.6 |  | COCC1CCCN1C(=O)c1ccncc1-n1nc(Cn2nc(-c3ccc(Cl)cc3)n(C[C@H](O)C(F)(F)F)c2=O)nc1C(=O)NCC(C)(C)N (mixture of isomers) [Example 536, N-(2-amino-2-methylpropyl)-3-({3-(4-chlorophenyl)-5-oxo-4-[(2S)-3,3,3-trifluoro-2-hydroxypropyl]-4,5-dihydro-1H-1,2,4-triazol-1-yl}methyl)-1-(4-{[2-(methoxymethyl)pyrrolidin-1-yl]carbonyl}pyridin-3-yl)-1H-1,2,4-triazol-5-carboxamide]
 | 33 | 21.0 | 693 | O=C(Nc1cccnc1-n1cnc(Cn2nc(-c3ccc(Cl)cc3)n(C[C@H](O)C(F)(F)F)c2=O)n1)[C@@H]1C[C@@H]1C(F)(F)F (racemic) [Example 45, N-{2-[3-({3-(4-Chlorophenyl)-5-oxo-4-[(2S)-3,3,3-trifluoro-2-hydroxypropyl]-4,5-dihydro-1H-1,2,4-triazol-1-yl}methyl)-1H-1,2,4-triazol-1-yl]pyridin-3-yl}-2-(trifluoromethyl)cyclopropanecarboxamide]
 | 6.45 | 362.4 | 2340 | O=C(Nc1ncccc1-n1cnc(Cn2nc(-c3ccc(Cl)cc3)n(C[C@H](O)C(F)(F)F)c2=O)n1)[C@@H]1C[C@@H]1F (racemic) [Example 76, N-{3-[3-({3-(4-Chlorophenyl)-5-oxo-4-[(2S)-3,3,3-trifluoro-2-hydroxypropyl]-4,5-dihydro-1H-1,2,4-triazol-1-yl}methyl)-1H-1,2,4-triazol-1-yl]pyridin-2-yl}-2-fluorocyclopropanecarboxamide]
 | 102 | 102.9 | 10500 | O=C(Nc1ncccc1-n1cnc(Cn2nc(-c3ccc(Cl)cc3)n(C[C@H](O)C(F)(F)F)c2=O)n1)[C@@H]1C[C@@H]1C(F)(F)F (racemic) [Example 79, N-{3-[3-({3-(4-Chlorophenyl)-5-oxo-4-[(2S)-3,3,3-trifluoro-2-hydroxypropyl]-4,5-dihydro-1H-1,2,4-triazol-1-yl}methyl)-1H-1,2,4-triazol-1-yl]pyridin-2-yl}-2-(trifluoromethyl)cyclopropanecarboxamide]
 | 9.95 | 321.6 | 3200 | O=C(Nc1ncccc1-n1cnc(Cn2nc(-c3ccc(Cl)cc3)n(C[C@H](O)C(F)(F)F)c2=O)n1)[C@H]1C[C@@H]1F (racemic) [Example 84, N-{3-[3-({3-(4-Chlorophenyl)-5-oxo-4-[(2S)-3,3,3-trifluoro-2-hydroxypropyl]-4,5-dihydro-1H-1,2,4-triazol-1-yl}methyl)-1H-1,2,4-triazol-1-yl]pyridin-2-yl}-2-fluorocyclopropanecarboxamide]
 | 2.65 | 315.1 | 835 | O=C(N[C@H]1C[C@H]1F)c1cccc(Cl)c1-n1cnc(Cn2nc(-c3ccc(Cl)cc3)n(C[C@H](O)C(F)(F)F)c2=O)n1 (racemic) [Example 389, 3-Chloro-2-[3-({3-(4-chlorophenyl)-5-oxo-4-[(2S)-3,3,3-trifluoro-2-hydroxypropyl]-4,5-dihydro-1H-1,2,4-triazol-1-yl}methyl)-1H-1,2,4-triazol-1-yl]-N-[2-fluorocyclopropyl]benzamide]
 | 72 | 96.5 | 6950 | O=C(N[C@H]1C[C@H]1F)c1cccc(Cl)c1-n1cnc(Cn2nc(-c3ccc(Cl)cc3)n(C[C@@H](O)C(F)(F)F)c2=O)n1 (racemic) [Example 397, 3-Chloro-2-[3-({3-(4-chlorophenyl)-5-oxo-4-[(2R)-3,3,3-trifluoro-2-hydroxypropyl]-4,5-dihydro-1H-1,2,4-triazol-1-yl}methyl)-1H-1,2,4-triazol-1-yl]-N-[2-fluorocyclopropyl]benzamide]
2050 | 34.5 | 59.4 |  | O=C(N[C@@H]1C[C@@H]1F)c1cccc(C(F)(F)F)c1-n1cnc(Cn2nc(-c3ccc(Cl)cc3)n(C[C@H](O)C(F)(F)F)c2=O)n1 (racemic) [Example 413, 2-[3-({3-(4-Chlorophenyl)-5-oxo-4-[(2S)-3,3,3-trifluoro-2-hydroxypropyl]-4,5-dihydro-1H-1,2,4-triazol-1-yl}methyl)-1H-1,2,4-triazol-1-yl]-N-[2-fluorocyclopropyl]-3-(trifluoromethyl)benzamide]
2800 | 30 | 93.3 |  | O=C(N[C@H]1C[C@@H]1F)c1cccc(C(F)(F)F)c1-n1cnc(Cn2nc(-c3ccc(Cl)cc3)n(C[C@H](O)C(F)(F)F)c2=O)n1 (racemic) [Example 422, 2-[3-({3-(4-Chlorophenyl)-5-oxo-4-[(2S)-3,3,3-trifluoro-2-hydroxypropyl]-4,5-dihydro-1H-1,2,4-triazol-1-yl}methyl)-1H-1,2,4-triazol-1-yl]-N-[2-fluorocyclopropyl]-3-(trifluoromethyl)benzamide]
1060 | 24.5 | 43.5 |  | O=C(N[C@H]1C[C@H]1F)c1ncccc1-n1cnc(Cn2nc(-c3ccc(Cl)cc3)n(C[C@H](O)C(F)(F)F)c2=O)n1 (racemic) [Example 435, 3-[3-({3-(4-Chlorophenyl)-5-oxo-4-[(2S)-3,3,3-trifluoro-2-hydroxypropyl]-4,5-dihydro-1H-1,2,4-triazol-1-yl}methyl)-1H-1,2,4-triazol-1-yl]-N-[2-fluorocyclopropyl]pyridine-2-carboxamide]
785 | 12 | 65.4 |  | O=C(N[C@H]1C[C@H]1F)c1ncccc1-n1cnc(Cn2nc(-c3ccc(Cl)cc3)n(C[C@H](O)C(F)(F)F)c2=O)n1 (racemic) [Example 456, 3-[3-({3-(4-Chlorophenyl)-5-oxo-4-[(2S)-3,3,3-trifluoro-2-hydroxypropyl]-4,5-dihydro-1H-1,2,4-triazol-1-yl}methyl)-1H-1,2,4-triazol-1-yl]-N-[2-fluorocyclopropyl]pyridine-2-carboxamide]
155 | 3.1 | 50.0 |  | O=C(N[C@H]1C[C@H]1F)c1cccnc1-n1cnc(Cn2nc(-c3ccc(Cl)cc3)n(C[C@H](O)C(F)(F)F)c2=O)n1 (racemic) [Example 504, 2-[3-({3-(4-Chlorophenyl)-5-oxo-4-[(2S)-3,3,3-trifluoro-2-hydroxypropyl]-4,5-dihydro-1H-1,2,4-triazol-1-yl}methyl)-1H-1,2,4-triazol-1-yl]-N-[2-fluorocyclopropyl]pyridine-3-carboxamide]
32000 | 4500 | 7.1 |  | O=C1CN(c2nc(Cn3nc(-c4ccc(Cl)cc4)n(C[C@H](O)C(F)(F)F)c3=O)nn2-c2cccnc2C(=O)N[C@H]2C[C@@H]2F)CCN1 (racemic) [Example 507, 3-[3-({3-(4-Chlorophenyl)-5-oxo-4-[(2S)-3,3,3-trifluoro-2-hydroxypropyl]-4,5-dihydro-1H-1,2,4-triazol-1-yl}methyl)-5-(3-oxopiperazin-1-yl)-1H-1,2,4-triazol-1-yl]-N-[2-fluorocyclopropyl]pyridine-2-carboxamide]
